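Briefly, cells in 96-well plates were exposed to five compound concentrations for 48 h, and endpoints were estimated by linear interpolation. TGI marks complete inhibition of growth.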
Experiments:
Experiment in all cases: DTP human tumour cell line panel, 48 h
[1] = tested on: SK-MEL-5 melanoma
[2] = tested on: SF-539 CNS
[3] = tested on: NCI-H460 lung
[4] = tested on: SF-295 CNS
[5] = tested on: UACC-62 melanoma
[6] = tested on: SW-620 colon
[7] = tested on: PC-3 prostate
[8] = tested on: SNB-19 CNS
[9] = tested on: HCT-116 colon
[10] = tested on: LOX IMVI melanoma

Structure (SMILES) | TGI [1] [µM] | TGI [2] [µM] | TGI [3] [µM] | TGI [4] [µM] | TGI [5] [µM] | TGI [6] [µM] | TGI [7] [µM] | TGI [8] [µM] | TGI [9] [µM] | TGI [10] [µM]
Cc1cc(C)n(CN(Cn2nc(C)cc2C)C2CCCCC2)n1 | > 100 | 29.1 | > 100 | > 100 | 41.7 | 92.7 | 60 | > 100 | 45.6 | 46.3
CSc1cc(N)ccc1N=Nc1ccc(S(N)(=O)=O)cc1 | 30.6 | 93.7 | 71.6 | 56.6 | 32 | > 100 | > 100 | > 100 | > 100 | > 100
NC(N)=NS(=O)(=O)c1ccc(NC(=O)c2ccc3nc4ccccc4c(Nc4ccc(S(N)(=O)=O)cc4)c3c2)cc1 | > 100 | > 100 | > 100 | > 100 | > 100 | > 100 | > 100 | > 100 | > 100 | > 100
COc1cccc(-c2cc(=O)c3ccc(C)nc3[nH]2)c1 | 2.47 | 0.921 | > 100 | > 100 | > 100 | > 100 | > 42 | > 100 | > 38.1 | > 100
CC(C)(C)OC[C@H](O)CC#N | > 100 | > 100 | > 100 | > 100 | > 100 | > 100 | > 100 | > 100 | > 100 | > 100
Cc1ccc(-c2n[nH]c(=O)[nH]2)cc1[N+](=O)[O-] | > 100 | > 100 | > 100 | > 100 | > 100 | > 100 | > 100 | > 100 | > 100 | > 100
Cc1ccc(N=Nc2c(C)c(C#N)c(=S)n(C3OC(CO)C(O)C(O)C3O)c2-c2ccccc2)cc1 (stereo not given) | 23.2 | 48.9 | > 100 | 69.5 | 32 | 36.3 | 55.6 | 48.1 | 29 | 31.2
COC(=O)[C@@H]1C[C@@]2(C3C=CN(C(=O)C(F)(F)F)C=C3)c3ccccc3N(C(=O)C(F)(F)F)[C@H]2N1C(=O)OC | > 100 | > 100 | > 100 | > 100 | > 100 | > 100 | > 100 | > 100 | > 100 | > 100
CC(=O)OCC=C(CCl)CCC(Br)C(C)(C)Br (mixture of isomers) | > 10 | > 10 | > 10 | > 10 | > 10 | > 10 | > 10 | > 10 | > 10 | > 10
C=C(C)C1CC=C(C)C2(C1)OCC(C)(C)C(C)O2 (stereo not given) | 29.2 | 48 | > 100 | 48.2 | 30.4 | 43.2 | > 100 | 33.3 | 31.1 | 31.8
CCOC(=O)C(/C=N\C(=S)Nc1ccc(OCC)cc1)=C(/O)c1ccccc1 | > 100 | > 100 | > 100 | > 100 | > 100 | > 100 | > 100 | > 100 | > 100 | > 100
c1ccc2c(c1)nc1n2CCSC1 | > 100 | > 100 | > 100 | > 100 | > 100 | > 100 | > 100 | > 100 | > 100 | > 100
CCc1c(C)c(C#N)c(=S)n(C2OC(CO)C(O)C(O)C2O)c1C (stereo not given) | > 100 | > 100 | > 100 | > 100 | > 100 | > 100 | > 100 | > 100 | > 100 | > 100
COC(=O)[C@@]12CCCC(=O)[C@@H]1[C@H]1CCCC[C@H]12 | > 100 | > 100 | > 100 | > 100 | > 100 | > 100 | > 100 | > 100 | > 100 | > 100
Cc1cc(=O)oc2cc(O)ccc12 | > 100 | > 100 | > 100 | > 100 | > 100 | > 100 | > 100 | > 100 | > 100 | > 100
CC(=O)c1cc2c(s1)C(=O)c1ccccc1C2=O | 0.588 | 8.32 | > 33.4 | 8.99 | 7.01 | 9.67 | > 100 | 5.57 | > 31.2 | 15
C/C(O)=C/c1nc2ccc([N+](=O)[O-])cc2nc1/C=C(/C)O | > 100 | > 100 | 51.5 | > 100 | > 100 | > 100 | > 100 | > 100 | > 100 | > 100
C[n+]1c2ccccc2c(C(=O)Nc2ccc(S(=O)(=O)N=C(N)N)cc2)c2ccccc21 | > 100 | > 100 | > 100 | > 100 | > 100 | > 100 | > 100 | > 100 | > 100 | > 100
[N-]=[N+]=Nc1ccc(CNc2cc(=O)[nH]c(=O)[nH]2)cc1 | > 100 | > 100 | > 100 | > 100 | > 100 | > 100 | > 100 | > 100 | > 100 | > 100

Structure (SMILES) | TGI [1] [µM] | TGI [2] [µM] | TGI [3] [µM] | TGI [4] [µM] | TGI [5] [µM] | TGI [6] [µM] | TGI [7] [µM] | TGI [8] [µM] | TGI [9] [µM] | TGI [10] [µM]
COc1ccc2nc3cc(Cl)ccc3c(NCCNCCCNC(=O)c3cc(-c4ccccc4)nc4ccccc34)c2c1 | > 100 | > 100 | > 100 | > 100 | > 100 | > 100 | > 100 | > 100 | > 100 | > 100
O=C1C(Br)=C(c2ccccc2)S(=O)c2ccccc21 (stereo not given) | 24.7 | 12.9 | 40.6 | 34.6 | 26.6 | 38.4 | 21.2 | 39.9 | 20.4 | 28.2
COc1c(C)c(OC)c2c(c1O)[C@@H]1[C@@H]3Cc4c(OC)c(C)c(OC)c(O)c4[C@H](CNC(=O)c4cnc5ccccc5n4)N3[C@@H](C#N)[C@H](C2)N1C | 0.0187 | 0.0104 | > 0.1 | > 0.0294 | 0.00346 | > 0.0313 | > 0.0556 | > 0.0533 | > 0.1 | > 0.0273
COc1ccc(OC)c2c1C1CCC(=O)N1CN2C(C)=O (stereo not given) | > 100 | > 100 | > 100 | > 100 | > 100 | > 100 | > 100 | > 100 | > 100 | > 100
Cc1c(-c2ccccc2)c(C#N)c2nnc(C(N)=O)c(N)n12 | > 100 | > 100 | > 100 | > 100 | > 100 | > 100 | > 100 | > 100 | > 100 | > 100
CCOC(=O)C(CS)NC(=O)CCCCCCCC(=O)NC(CS)C(=O)OCC (stereo not given) | > 100 | > 100 | > 100 | > 100 | > 100 | > 100 | > 100 | > 100 | > 100 | > 100
Cc1c(NC2(C)C(=O)N(/N=C/c3ccccc3)N=C2c2ccccc2)n[nH]c1-c1ccccc1 (stereo not given) | > 100 | > 100 | > 100 | > 100 | > 100 | > 100 | > 100 | > 100 | > 100 | > 100
S=C(S)NCC1CCC(CNC(=S)S)CC1 (stereo not given) | > 100 | > 100 | > 100 | > 100 | > 100 | > 100 | 37.5 | > 100 | 42.5 | 40.8
CC(=O)N1CCN(C23OC4(N5CCN(C(C)=O)CC5)C5C6CC(C7C6C4C72)C53)CC1 (stereo not given) | > 100 | > 100 | > 100 | > 100 | > 100 | > 100 | > 100 | > 100 | > 100 | > 100
COc1cc(S(=O)(=O)Nc2ccc(-c3csc(N4C(=O)CSC4c4ccccc4)n3)cc2)ccc1Cl (stereo not given) | > 100 | > 100 | > 100 | > 100 | 39.6 | > 100 | > 100 | > 100 | > 100 | > 100
O=c1[nH]c2cc3[nH]c4ncccc4c(=O)c3cc2[nH]1 | > 10 | > 10 | > 10 | > 10 | > 10 | > 10 | > 10 | > 10 | > 10 | > 10
CC1(C)Oc2ccc(NC(=O)CCC(N)C(=O)O)cc2O1 (stereo not given) | > 100 | > 100 | > 100 | > 100 | > 100 | > 100 | > 100 | > 100 | > 100 | > 100
Cc1sc2ccccc2[n+]1CCC(=O)O | > 100 | > 100 | > 100 | > 100 | > 100 | > 100 | > 100 | > 100 | > 100 | > 100
CC(C)OP(=O)(OC(C)C)C(C(C)C)N(C)/C(F)=N/C(F)(F)F (stereo not given) | > 100 | > 100 | > 100 | > 100 | > 100 | > 100 | > 100 | > 100 | > 100 | > 100
CC1(COS(=O)(=O)OCC2(C)COS(=O)(=O)OC2)COS(=O)(=O)OC1 | > 100 | > 100 | > 100 | > 100 | > 100 | > 100 | > 100 | > 100 | > 100 | > 77.9
O=c1[nH]c(N/N=C\C(O)C(O)C(O)CO)nc2ccccc12 (stereo not given) | > 100 | > 100 | > 100 | > 100 | > 100 | > 100 | > 100 | > 100 | > 100 | > 100
Cc1ccc(C(=O)/C(C#N)=C/Nc2c(C)n(C)n(-c3ccccc3)c2=O)cc1 | > 100 | > 100 | > 100 | > 100 | > 100 | > 100 | > 100 | > 100 | > 100 | > 100
O=c1[nH]c(Nc2cccc(Cl)c2)nc2nc[nH]c12 | > 100 | > 100 | > 100 | > 100 | > 100 | > 100 | > 100 | > 100 | > 100 | > 100

Source: PubChem BioAssay (NCI)
